Test results: publication PMC6025901 (Science translational medicine, 2015)
pEC50: −log10 of the molar value. Read-outs that look alike come from different tables or passages of the source.

Key:
TcdB = TcdB (Clostridioides difficile, UniProt P18177); assay: murine systemic intoxication; type: in vivo, mouse; details: mice, TcdB 1.0 µg/kg i.p. pretreated with 100 nM ebselen
C. difficile strain 630 = assay: mouse C. difficile infection model; type: in vivo; details: for histopathological score, dose-response study: 5-day treatment
[1] = test system: TcdB-induced cell rounding, human foreskin fibroblast (HFF) cells; assay: cells; type: cell-based; details: for pEC50: Homo sapiens, HFF
TcdB CPD domain = TcdB CPD domain (Clostridioides difficile, UniProt P18177); assay: competition labeling assay with TAMRA–AWP-19; type: biochemical, Clostridium difficile; details: IP6-activated CPD, TAMRA–AWP-19 labeling
full-length TcdA = full-length TcdA (Clostridioides difficile, UniProt P16154); assay: IP6-induced autoprocessing / TAMRA–AWP-19 labeling of full-length TcdA; type: biochemical, Clostridium difficile
[2] = test system: large clostridial toxins (TcdA and TcdB) in patient stool sample, cell rounding; assay: cells; type: cell-based; details: Homo sapiens, read-out: EC50 for inhibition of toxin-induced cytopathology
full-length TcdB = full-length TcdB (Clostridioides difficile, UniProt P18177); type: biochemical, Clostridium difficile
[3] = target: TcdB GTD domain (amino acids 1 to 543) (Clostridioides difficile, UniProt P18177); type: biochemical, Clostridium difficile
[4] = 100 mg/kg daily oral gavage, day 5, vs vehicle

Sequence of full-length TcdB (P18177 whole entry, the tested form may be a part): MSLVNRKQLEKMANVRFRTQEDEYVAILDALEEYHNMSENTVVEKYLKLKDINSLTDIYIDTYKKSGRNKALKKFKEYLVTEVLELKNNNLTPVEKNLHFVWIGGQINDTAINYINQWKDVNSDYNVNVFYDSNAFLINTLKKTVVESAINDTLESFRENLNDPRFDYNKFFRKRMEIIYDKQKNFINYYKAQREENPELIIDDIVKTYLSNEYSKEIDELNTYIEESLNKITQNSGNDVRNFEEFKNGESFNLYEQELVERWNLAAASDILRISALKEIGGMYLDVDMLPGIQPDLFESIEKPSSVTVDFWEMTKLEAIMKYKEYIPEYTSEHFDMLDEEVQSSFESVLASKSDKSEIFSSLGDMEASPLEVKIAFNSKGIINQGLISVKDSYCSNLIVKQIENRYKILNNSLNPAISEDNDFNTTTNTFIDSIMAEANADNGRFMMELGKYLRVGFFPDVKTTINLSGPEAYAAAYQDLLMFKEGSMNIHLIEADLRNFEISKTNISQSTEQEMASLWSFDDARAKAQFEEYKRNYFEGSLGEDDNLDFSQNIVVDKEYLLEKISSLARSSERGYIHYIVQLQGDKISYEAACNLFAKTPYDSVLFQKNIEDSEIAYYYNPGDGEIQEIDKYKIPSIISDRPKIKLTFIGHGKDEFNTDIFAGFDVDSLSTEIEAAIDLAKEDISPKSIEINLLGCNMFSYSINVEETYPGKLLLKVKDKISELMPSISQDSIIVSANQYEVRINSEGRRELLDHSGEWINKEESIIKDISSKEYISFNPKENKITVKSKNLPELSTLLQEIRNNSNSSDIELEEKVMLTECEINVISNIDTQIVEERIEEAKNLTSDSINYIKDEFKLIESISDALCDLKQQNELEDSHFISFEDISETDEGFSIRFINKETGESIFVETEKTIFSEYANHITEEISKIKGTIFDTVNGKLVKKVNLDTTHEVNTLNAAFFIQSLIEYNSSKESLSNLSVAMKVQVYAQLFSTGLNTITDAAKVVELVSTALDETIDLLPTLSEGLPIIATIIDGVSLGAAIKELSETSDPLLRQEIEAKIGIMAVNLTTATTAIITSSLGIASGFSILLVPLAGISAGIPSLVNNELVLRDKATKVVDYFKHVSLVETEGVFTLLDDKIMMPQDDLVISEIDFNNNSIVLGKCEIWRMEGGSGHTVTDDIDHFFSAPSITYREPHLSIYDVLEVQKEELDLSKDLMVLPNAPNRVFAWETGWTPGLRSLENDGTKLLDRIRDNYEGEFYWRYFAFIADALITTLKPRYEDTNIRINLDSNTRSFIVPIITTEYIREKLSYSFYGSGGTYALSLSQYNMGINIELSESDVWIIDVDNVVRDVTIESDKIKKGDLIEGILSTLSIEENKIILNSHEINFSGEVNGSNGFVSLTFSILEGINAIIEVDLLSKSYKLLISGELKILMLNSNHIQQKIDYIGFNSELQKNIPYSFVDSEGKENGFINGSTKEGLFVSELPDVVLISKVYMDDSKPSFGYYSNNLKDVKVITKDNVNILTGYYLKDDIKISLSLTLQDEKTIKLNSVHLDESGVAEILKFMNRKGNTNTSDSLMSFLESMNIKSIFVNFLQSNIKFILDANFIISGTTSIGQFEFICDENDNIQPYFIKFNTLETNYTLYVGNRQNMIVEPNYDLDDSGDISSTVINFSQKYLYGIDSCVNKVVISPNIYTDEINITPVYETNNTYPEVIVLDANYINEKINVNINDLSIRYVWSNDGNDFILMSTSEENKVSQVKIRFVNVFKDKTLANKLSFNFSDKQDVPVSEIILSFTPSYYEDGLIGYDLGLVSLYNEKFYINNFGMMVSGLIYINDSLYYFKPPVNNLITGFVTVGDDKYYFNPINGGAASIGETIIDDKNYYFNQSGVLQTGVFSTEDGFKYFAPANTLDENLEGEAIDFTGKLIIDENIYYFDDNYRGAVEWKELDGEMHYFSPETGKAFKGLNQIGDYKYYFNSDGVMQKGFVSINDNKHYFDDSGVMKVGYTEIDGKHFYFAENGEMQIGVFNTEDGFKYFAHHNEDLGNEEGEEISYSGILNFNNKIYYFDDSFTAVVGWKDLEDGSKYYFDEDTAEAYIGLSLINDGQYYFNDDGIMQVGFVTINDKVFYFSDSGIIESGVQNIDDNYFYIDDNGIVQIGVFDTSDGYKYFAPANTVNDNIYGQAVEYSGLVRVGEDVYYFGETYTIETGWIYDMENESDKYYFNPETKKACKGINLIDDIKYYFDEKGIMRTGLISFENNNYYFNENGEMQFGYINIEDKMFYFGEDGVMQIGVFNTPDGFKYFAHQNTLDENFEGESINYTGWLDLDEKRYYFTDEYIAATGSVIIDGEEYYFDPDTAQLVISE
Sequence of TcdB GTD domain (amino acids 1 to 543) (P18177 1-543): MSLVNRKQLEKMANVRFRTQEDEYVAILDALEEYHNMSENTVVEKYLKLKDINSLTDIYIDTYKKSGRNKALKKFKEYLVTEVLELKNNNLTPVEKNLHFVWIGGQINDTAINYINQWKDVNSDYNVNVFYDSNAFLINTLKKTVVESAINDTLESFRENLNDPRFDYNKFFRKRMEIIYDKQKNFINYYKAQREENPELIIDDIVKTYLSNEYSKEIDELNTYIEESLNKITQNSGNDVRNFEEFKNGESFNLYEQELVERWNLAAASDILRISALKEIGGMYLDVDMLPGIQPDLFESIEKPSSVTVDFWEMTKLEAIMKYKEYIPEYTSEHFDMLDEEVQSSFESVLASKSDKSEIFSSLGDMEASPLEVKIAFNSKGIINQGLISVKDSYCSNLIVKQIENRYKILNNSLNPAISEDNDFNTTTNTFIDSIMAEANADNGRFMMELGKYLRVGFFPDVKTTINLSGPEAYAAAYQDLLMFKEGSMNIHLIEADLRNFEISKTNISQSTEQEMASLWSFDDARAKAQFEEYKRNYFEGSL
Sequence of TcdB CPD domain (P18177 544-799 limits assumed): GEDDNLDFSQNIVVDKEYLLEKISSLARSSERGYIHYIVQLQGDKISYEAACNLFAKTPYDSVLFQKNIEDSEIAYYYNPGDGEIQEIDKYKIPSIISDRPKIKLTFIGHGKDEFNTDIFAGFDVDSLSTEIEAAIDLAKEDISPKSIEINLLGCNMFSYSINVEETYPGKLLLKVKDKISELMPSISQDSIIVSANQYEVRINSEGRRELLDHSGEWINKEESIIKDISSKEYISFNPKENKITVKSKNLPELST

## O=c1c2ccccc2[se]n1-c1ccccc1 [ebselen, 2-phenyl-1,2-benzoselenazol-3-one]
TcdB
  clinical signs of toxin action (vital signs): no significant changes in vital signs
C. difficile strain 630; 1 mg/kg daily
  histopathological score, dose-response study: no improvement in histopathological score
C. difficile strain 630; 10 mg/kg daily
  histopathological score, dose-response study: partial response
C. difficile strain 630; 100 mg/kg daily oral gavage, 5-day experiment
  C. difficile CFU counts in feces: did not significantly affect
C. difficile strain 630; [4]
  histopathological scores for cell infiltration, submucosal edema, and mucosal hypertrophy: significantly lower
  overall histopathological (clinical) score: statistically significant drop in clinical score
C. difficile strain 630; 100 mg/kg daily oral gavage, day 5 after infection
  cell rounding activity of shed toxin in feces (quantity of feces required to induce 50% cell rounding): reduction in cell rounding activity of shed toxin
C. difficile strain 630; 100 mg/kg daily oral gavage, vs vehicle
  cleaved form of GTD in colon tissues (Western blot): reduced the amount of the cleaved form of GTD
C. difficile strain 630; 100 mg/kg daily
  histopathological score, dose-response study: virtually complete response
[1]
  glucosylated Rac1 (Western blot, mAb102 nonglucosylated Rac1): decreased with increasing amounts of ebselen
  protection against delayed toxicity of L543A noncleavable mutant TcdB: showed further protection
[1]; read-out: EC50 for blocking cell rounding
  pEC50: 7.69
[1]; read-out: EC50 for protection against cell rounding
  pEC50: 6.66
TcdB CPD domain
  inhibition of IP6-induced labeling of the CPD active-site cysteine: low nanomolar concentrations
full-length TcdA
  inhibition of IP6-induced autoprocessing of full-length TcdA: low nanomolar potency
[2]
  pEC50: 6.43
full-length TcdB
  concentration giving complete inhibition of IP6-induced release of the GTD: 20 nM
  inhibition of IP6-induced autoprocessing of full-length TcdB: low nanomolar potency
[3]
  inhibition of glucosyltransferase activity of the GTD domain: did not show any inhibition
